Assay [1] has as its target T1, cellodextrin phosphorylase (CDP) (Acetivibrio thermocellus, UniProt Q93HT8).
T1 construct: gene cdp-ym4; 1009 amino acids, 114 kDa per monomer, homodimer
T1 sequence (Q93HT8 1-984): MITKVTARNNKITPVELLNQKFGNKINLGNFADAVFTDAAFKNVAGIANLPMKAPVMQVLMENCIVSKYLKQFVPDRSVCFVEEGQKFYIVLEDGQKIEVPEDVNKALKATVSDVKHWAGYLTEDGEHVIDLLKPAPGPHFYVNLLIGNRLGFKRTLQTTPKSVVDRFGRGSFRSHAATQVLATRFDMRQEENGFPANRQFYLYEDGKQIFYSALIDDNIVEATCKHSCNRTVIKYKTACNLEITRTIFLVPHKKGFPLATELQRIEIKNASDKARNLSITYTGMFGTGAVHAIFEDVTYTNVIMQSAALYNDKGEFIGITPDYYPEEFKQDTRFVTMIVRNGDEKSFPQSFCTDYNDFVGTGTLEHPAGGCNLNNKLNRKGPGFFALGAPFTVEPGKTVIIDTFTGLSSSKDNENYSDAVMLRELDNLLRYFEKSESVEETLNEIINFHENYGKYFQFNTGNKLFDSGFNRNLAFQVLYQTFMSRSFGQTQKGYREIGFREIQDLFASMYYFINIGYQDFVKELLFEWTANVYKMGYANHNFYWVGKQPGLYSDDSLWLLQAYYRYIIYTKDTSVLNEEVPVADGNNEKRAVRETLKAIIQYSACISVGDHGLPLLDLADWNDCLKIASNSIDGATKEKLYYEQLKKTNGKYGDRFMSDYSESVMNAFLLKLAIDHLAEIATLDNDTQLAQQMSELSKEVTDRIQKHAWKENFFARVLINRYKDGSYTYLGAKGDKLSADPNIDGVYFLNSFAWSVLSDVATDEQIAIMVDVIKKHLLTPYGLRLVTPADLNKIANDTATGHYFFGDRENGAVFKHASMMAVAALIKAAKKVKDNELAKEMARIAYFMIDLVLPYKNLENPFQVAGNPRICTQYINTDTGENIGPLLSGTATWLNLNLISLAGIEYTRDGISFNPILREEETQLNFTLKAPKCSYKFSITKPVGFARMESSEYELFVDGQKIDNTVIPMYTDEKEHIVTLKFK
Kind of assay: STD NMR, binding epitope mapping; tr-NOESY. Particulars: [D11]Tris 25 mM pH 7.4, NaCl 100 mM, 278 K (STD); tr-NOESY 290 K; 3 mM ligand, 15 uM binding sites (STD); acceptor site.

Assay [2] has as its target T1, cellodextrin phosphorylase (CDP). Kind of assay: STD NMR, binding epitope mapping. Conditions: [D11]Tris 25 mM pH 7.4, NaCl 100 mM, 278 K; 3 mM ligand, 15 uM binding sites; acceptor site.
The target is the same in assay [3]. Put plainly: STD NMR titration (STD-AF of H4beta, […] s saturation). The assay is classed as binding. Particulars: [D11]Tris 25 mM pH 7.4, NaCl 100 mM; no phosphate; apparent.

Consider `OC[C@H]1O[C@@H](O[C@H]2[C@H](O)[C@@H](CO)OC(O)[C@@H]2O)[C@H](O)[C@@H](O)[C@@H]1O` (stereo partly drawn) [D-laminaribiose], for which the “STD NMR, binding epitope mapping; tr-NOESY” value in assay [1] is given as “H2 of the non‐reducing glucose ring received the largest saturation transfer”.
For the compound `OC[C@H]1O[C@@H](O[C@H]2[C@H](O)[C@@H](O)[C@H](O[C@H]3[C@H](O)[C@@H](O)C(O)O[C@@H]3CO)O[C@@H]2CO)[C@H](O)[C@@H](O)[C@@H]1O` (stereo partly drawn) [D-cellotriose], the “STD NMR, binding epitope mapping” value in assay [2] was “D‐cellotriose showed contacts for both the reducing α‐ and β‐glucose rings”.
In the case of `OC[C@H]1O[C@@H](O[C@H]2[C@H](O)[C@@H](O)C(O)O[C@@H]2CO)[C@H](O)[C@@H](O)[C@@H]1O` (stereo partly drawn) [D-cellobiose], the Kd in assay [3] turned out to be 2.2 mM.

Values taken from PMC9293210, “Molecular Recognition of Natural and Non‐Natural Substrates by Cellodextrin Phosphorylase from Ruminiclostridium Thermocellum Investigated by NMR Spectroscopy” (Chemistry (Weinheim an Der Bergstrasse, Germany), 2021).
